Literature values in patent US20200155510A1, “TREATMENT OF AUTOIMMUNE DISORDERS, SUCH AS RELAPSING REMITTING MULTIPLE SCLEROSIS AND […] SYNDROME WITH BIOTIN COMPOSITIONS” (JDS Therapeutics, LLC, priority 2018, published 2020).

Settings: relative to biotin; background statement, no method given

O=C(O)CCCC[C@@H]1SC[C@@H]2NC(=O)N[C@@H]21 [Magnesium biotinate, Magnesium D-biotinate]
water solubility: more water soluble than biotin
